Measurements taken from patent US5679805A, “Photochromic spironaphthopyran compounds” (Vision-Ease Lens, Inc., priority 1995, dated 1997).

Tests used:
[1] = color on activation by ultraviolet light; format: physicochemical
[2] = fade time T1/2 of chloroform-dissolved photochromic compounds after isolation from ultraviolet light; format: physicochemical; parameters: key to T1/2 (fade time), footnoted reading: *: Fades too fast to obtain readings; settings: room temperature (72° F.); for T1/2 (fade time): absorbance of activated form to one half of maximum
Experimental: Additionally, a purchased sample of 3,3-diphenyl-naphtho-3H[2,1-b]pyran, identified as Comparative Example 2, was dissolved in a separate container of chloroform.
Each of the chloroform-dissolved photochromic compounds of Examples 1-3 and Comparative Examples 1-2 were then irradiated with ultraviolet light with a maximum wavelength of 350 nanometers, and the maximum absorption wavelength λmax was determined for each of the chloroform-dissolved photochromic compound. The fade time, T1/2 was then determined for each of the irradiated compounds. The fade time for a particular chloroform dissolved photochromic compound is defined as the time interval, at room temperature (72° F.), for the absorbance of the activated form of the chloroform-dissolved photochromic compound to decrease to one half of the maximum absorbance, after the photochromic compound is isolated from the activating source of ultraviolet light. The maximum absorption wavelength and fade time determined for each of the irradiated photochromic compounds of Examples 1-3 and Comparative Examples 1-2 are presented in Table 1: […]

[3] = maximum absorption wavelength of chloroform-dissolved photochromic compounds irradiated with ultraviolet light; format: physicochemical; settings: for maximum absorption wavelength λmax: Chloroform, maximum wavelength of 350 nanometers; for maximum wavelength of activation vs Comparative Example 1: compared with Comparative Example 1, 3,3-diphenyl-8-methoxy-3H-naphtho[2,1-b]pyran
[4] = cited from earlier work
[5] = irradiated with ultraviolet light

color when activated by ultraviolet light ([1]; activated by ultraviolet light)	color of blend with blue-turning photochromic compounds when activated ([1]; blend with blue-turning photochromic compounds, such as substituted spiroindolino naphthoxazine, ultraviolet radiation)	T1/2 (fade time) [2] [s]	maximum absorption wavelength λmax [3, 5]	maximum wavelength of activation vs Comparative Example 1 [3]	activated maximum wavelength of absorption ([3]; dissolved in chloroform, irradiated with ultraviolet light)	T1/2 (fade time), footnoted reading [2]	Compound	photochromic at room temperature [4]
deep shade of red	intense shade of gray	1.9	502	longer maximum wavelength of activation	about 502 nanometers	–	C1=CC2(Oc3ccc4c5c(ccc4c31)OC1(C=C5)c3ccccc3Sc3ccccc31)c1ccccc1Sc1ccccc12 [Example 2]	–
–	–	–	490	longer maximum wavelength of activation	–	*	C1=CC2(Oc3ccc4c5c(ccc4c31)OC1(C=C5)c3ccccc3-c3ccccc31)c1ccccc1-c1ccccc12 [Example 1]	–
–	–	13	435	–	–	–	C1=CC(c2ccccc2)(c2ccccc2)Oc2ccc3ccccc3c21 [Comparative Example 2, 3,3-diphenyl-naphtho-3H[2,1b]pyran, reference compound]	photochromic at room temperature
–	–	10	–	–	–	–	COc1ccc2c3c(ccc2c1)OC(c1ccccc1)(c1ccccc1)C=C3 [Comparative Example 1, 3,3-diphenyl-8-methoxy-3H-naphtho[2,1-b]pyran, reference compound]	–
